# From patent US20200306244A1, “WNT INHIBITORS FOR USE IN THE TREATMENT OF FIBROSIS” (NOVARTIS AG, priority 2016, published 2020)
# How the values were obtained:
# [1] = tested on: primary kidney fibroblasts; settings: Madan et al. 2016; cited from earlier work
# [2] = Plasma exposure after last oral dose in Tsk-1 model; assay type: in vivo, mouse (Tsk-1); settings: FIG. 3E
# Procedure: (§1) The plasma concentrations of compound of formula (I′) were determined by a liquid chromatography-tandem mass spectrometry (LC/MS/MS) assay. Briefly, mouse plasma samples were extracted with a methanol-acetonitrile mixture (3:1, v/v). Supernatant was injected onto HPLC system with a Waters Atlantis T3 analytical column (2.1×30 mm, 3.5 μm, Waters Corp., Milford, Mass., USA). The mobile phases consisted of 0.1% formic acid in water (solvent A) and 0.1% formic acid in acetonitrile (solvent B), and a gradient elution method (0-1.5 min, 10% B to 95% B; 1.5-2.0 min, 95% B; 2.01 min, 10% B) at flow rate of 800 μL/min was employed for chromatographic separation. […] Multiple reaction monitoring (MRM) of compound of formula (I′) and internal standard was used for quantitative measurements, and peak integration was performed using Analyst™ 1.4 software. […] Pharmacokinetic parameters were calculated by non-compartmental regression analysis using an in house fitting program.
# Similar to that described for the bleomycin-induced mouse fibrosis model, plasma exposures of compound of formula (I′) in this tight skin model were also determined following the last oral dose, and PK data are shown in FIG. 3E.
# [3] = PK analysis of blood samples after last dose in bleomycin-treated Balb/C mice; assay type: in vivo, mouse (Balb/C); settings: 5 mg/kg b.i.d. oral for 3 weeks; FIG. 2A
# Procedure: as §1
# (§2) In a separate study to confirm the on-target activity of compound of formula (I′) in a mouse fibrosis model, bleomycin was injected in Balb/C mice, with or without orally dosed compound of formula (I′) at 5 mg/kg b.i.d. for 3 weeks. […] Tissue samples were collected 7 hour after the last dose, and the Wnt pathway target gene Axin2 mRNA expression level was measured with qRT-PCR, with the housekeeping gene, Gapdh, as an internal control.
# Tsk-1 mice fibrosis = assay: Tight skin (Tsk-1) mouse genetic fibrosis model; assay type: in vivo, mouse (Tsk-1); settings: for skin thickness: FIG. 3B; for myofibroblast count: FIG. 3D; for anti-fibrotic effects: Tsk-1 model
# Procedure: In the Tsk-1 model (FIG. 3(A-F)), treatment with compound of formula (I′) was started at the age of 5 weeks and was continued for 5 weeks. Animals were treated with or without compound of formula (I′) at multiple dose levels twice daily using suspension formulation containing 0.5% methylcellulose and 0.5% tween 80.
# (§3) The anti-fibrotic effects of compound of Formula (I′) on experimental skin fibrosis was evaluated by quantification of dermal or hypodermal thickening, respectively, analyses of myofibroblast counts and assessment of hydroxyproline content. Tissue samples were fixed in 10% phosphate-buffered formalin for 24 hours, then embedded in paraffin and cut into […] sections. The slides were stained with hematoxylin and eosin for better visualization of the tissue structure.
# (§4) The hydroxyproline content was measured according to the method as described in hydroxyproline content (Woessner J. F. Arch. Biochem. Biophys. […], 93, 440-447).
# (§5) The dermal thickness was analyzed with a microscope by measuring the maximal distance between the epidermal-dermal junction and the dermal-subcutaneous fat junction at 4 different skin sections in each mouse.
# The Hypodermal thickness in TSK-1 mice was determined by measuring the thickness of the subcutaneous connective tissue beneath the panniculus carnosus at 4 different sites of the upper back in each mouse. The evaluation was performed by 2 independent examiners.
# (§6) For quantification of myofibroblasts, skin sections were deparaffinized and incubated with 5% bovine serum albumin for 60 minutes. Cells positive for α-smooth muscle actin (α-SMA) were detected by incubation with monoclonal anti-α-SMA antibodies (clone 1A4; Sigma-Aldrich, Steinheim, Germany) for 2 hours at room temperature followed by incubation with 3% hydrogen peroxide for 10 minutes. […] antibodies labeled with horseradish peroxidase were used as secondary antibodies. The expression of α-SMA was visualized with 3,3′-diaminobenzidine tetrahydrochloride. Monoclonal mouse IgG antibodies were used as controls
# To further test the anti-fibrotic effects of compound of formula (I′), we turned to a mouse genetic fibrosis model, the tight skin model (Tsk-1). Tsk-1 mice contain a spontaneous duplication mutation of fibrillin-1 gene, which leads to activation of TGFβ signaling, and the subsequent fibrosis (increased in dermal and hypodermal thickness).
# Five week old wild type or Tsk-1 mice were treated with or without compound of formula (I′) b.i.d. for 5 weeks (FIG. 3A).
# [4] = tested on: bleomycin-induced skin fibrosis; assay: Bleomycin mouse fibrosis model in Balb/C mice, skin thickness (FIG. 4); assay type: in vivo
# Procedure: To test compound of formula (I′) and compound of formula (I″) in a mouse fibrosis model, bleomycin was injected in Balb/C mice, with or without orally dosed compound of formula (I′) (5 mg/kg b.i.d.) and compound of formula (I″) (1 mg/kg b.i.d.) for 3 weeks. Skin tissue samples were taken at the end of the study and embedded in paraffin and skin thickness was measured (FIG. 4). Furthermore, the bleomycin treated animals were treated with or without orally dosed compound of formula (I′) at a dose of 5 mg/kg b.i.d. and compound of formula (I″) at a dose of 1 mg/kg b.i.d. for three weeks.
# [5] = Plasma exposure after last oral dose in bleomycin model (C57/BI6); assay type: in vivo, mouse (female C57/BI6); settings: FIG. 1E
# Procedure: The plasma concentrations of compound of formula (I′) were determined by a liquid chromatography-tandem mass spectrometry (LC/MS/MS) assay. Briefly, mouse plasma samples were extracted with a methanol-acetonitrile mixture (3:1, v/v). Supernatant was injected onto HPLC system with a Waters Atlantis T3 analytical column (2.1×30 mm, 3.5 μm, Waters Corp., Milford, Mass., USA). The mobile phases consisted of 0.1% formic acid in water (solvent A) and 0.1% formic acid in acetonitrile (solvent B), and a gradient elution method (0-1.5 min, 10% B to 95% B; 1.5-2.0 min, 95% B; 2.01 min, 10% B) at flow rate of 800 μL/min was employed for chromatographic separation. Mass spectrometric analysis was performed on a SCIEX API-4000 triple quadruple mass spectrometer (Applied Biosystems, Foster City, Calif., USA) using atmospheric pressure chemical ionization (APCI) in the positive ion mode. Multiple reaction monitoring (MRM) of compound of formula (I′) and internal standard was used for quantitative measurements, and peak integration was performed using Analyst™ 1.4 software. The lower limit of detection for the assay was 1 ng/mL. Pharmacokinetic parameters were calculated by non-compartmental regression analysis using an in house fitting program.
# [6] = tested on: Wnt pathway target gene Axin2 mRNA; assay: Axin2 mRNA expression in skin tissue of bleomycin-treated Balb/C mice (qRT-PCR/TaqMan); assay type: in vivo, mouse (Balb/C); settings: 5 mg/kg b.i.d. oral 3 weeks, tissue 7 hour after last dose, Gapdh internal control; FIG. 2B
# Procedure: Total RNA was isolated from tissue samples and processed to perform quantitative RT-PCR analysis of […] mRNA expression, with Gapdh serving as an internal control according to the manufacturer's instructions, as previously described.
# Data were analyzed with SDS 2.0 software (Applied Biosystems), statistical analysis was conducted using PRISM.
# as §2, with “weeks. Blood samples at multiple time points after the last dose were collected.” for “weeks.”
# [7] = tested on: bleomycin-induced skin fibrosis; assay: Bleomycin-induced mouse skin fibrosis model, 3 weeks bleomycin then 3 weeks treatment; assay type: in vivo, mouse (female C57/BI6); settings: for dermal skin thickness: FIG. 1B
# Procedure: In the bleomycin model (FIG. 1 (A-E) and FIG. 2 (A-B)), fibrosis was induced in 6-week-old female C57/BI6 mice (Charles River, Sulzfeld, Germany) by injection of 100 μL 0.5 mg/ml bleomycin into a defined skin area of 1 cm' between the shoulders at the back every other day for up to six weeks. Control mice were injected with 0.9% NaCl, the solvent of bleomycin. Another group of mice received bleomycin injections for 3 weeks followed by saline (NaCl) injections for the next 3 weeks to control for spontaneous regression of fibrosis. Animals were treated with or without compound of formula (I′) at multiple dose levels twice daily for indicated weeks using suspension formulation containing 0.5% methylcellulose and 0.5% tween 80. Each group of mice were killed and the skin sections analyzed.
# as §3, §4, §5, §6
# Porcupine Inhibitor Compound of Formula (I′) in the Bleomycin-Induced Mouse Fibrosis Model To test compound of formula (I′) for anti-fibrotic effects, bleomycin was injected in 6-week-old female C57/BI6 mice for 3 weeks to induce fibrosis (FIG. 1A). The control group was injected with saline. The bleomycin treated animals were further dosed with or without compound of formula (I′) b.i.d. for another 3 weeks. […] Similar observations have been obtained when examining the hydroxyproline content and myofibroblast count of mouse skin samples as shown in FIG. 1C and FIG. 1D.
# skin fibrosis markers = settings: clinical trial; Rice et al. 2015; cited from earlier work
# [8] = all dose levels (2.5, 5, 10 mg/kg) b.i.d. for 5 weeks
molecule,measurement,setting,value
Cc1cc(-c2ccc(CC(=O)Nc3ccc(-c4cccnc4)cc3)cc2)ccn1 [C59],TGFβ-induced Axing induction,[1],could abrogate TGFβ-induced Axing induction
"CC(=O)N1CCN(c2ccc(NC(=O)Cc3cnc(-c4ccnc(F)c4)c(C)c3)nc2)CC1 [compound of formula (I′), N-(5-(4-acetylpiperazin-1-yl)pyridin-2-yl)-2-(2′-fluoro-3-methyl-[2,4′-bipyridin]-5-yl)acetamide]",plasma exposures compared with bleomycin model,[2]; after last oral dose,comparable between the two separate experiments
same,"plasma exposures, dose proportionality",[2]; from […] to 10 mg/kg,increased approximately dose proportionally
same,oral bioavailability,[3],good oral bioavailability
same,skin thickness,Tsk-1 mice fibrosis; 5 and 10 mg/kg groups,reduced to levels lower than the baseline and closer to the control group
same,myofibroblast count,Tsk-1 mice fibrosis; 5 and 10 mg/kg groups,reduction of the myofibroblast count towards control level
same,hypodermal skin thickness,"Tsk-1 mice fibrosis; H&E staining of mouse skin samples, FIG. 3F",significantly reduced hypodermal skin thickness
same,anti-fibrotic effects,Tsk-1 mice fibrosis,robust anti-fibrotic effects
same,skin thickness,Tsk-1 mice fibrosis; [8],significant anti-fibrotic effects at all dose levels
same,hydroxyproline content,"Tsk-1 mice fibrosis; all dose levels (2.5, 5, 10 mg/kg) b.i.d. for 5 weeks, FIG. 3C",significant anti-fibrotic effects at all dose levels
same,myofibroblast count,Tsk-1 mice fibrosis; [8],significant anti-fibrotic effects at all dose levels
same,dermal skin thickness,[4]; 5 mg/kg b.i.d. oral for three weeks,induce the reduction of dermal skin thickness
same,absorption and oral exposure,"[5]; after last oral dose, 2.5-10 mg/kg b.i.d.",highly absorbed and showed high oral exposures
same,"plasma exposures, dose proportionality",[5]; from […] to 10 mg/kg,increased approximately dose proportionally
same,reduction of Axin2 mRNA expression,[6],54%
same,dermal skin thickness,"[7]; 5 mg/kg and 10 mg/kg groups, oral b.i.d. 3 weeks",reduced the skin thickness to levels lower than the baseline
same,fibrosis reversal (hydroxyproline content and myofibroblast count),[7]; 5 and 10 mg/kg groups,strong evidence of fibrosis reversal
same,dermal skin thickness,"[7]; all dose levels (2.5, 5, 10 mg/kg) oral b.i.d. for 3 weeks after 3 weeks bleomycin",reduced dermal skin thickness at all dose levels in a dose dependent manner
same,hydroxyproline content,"[7]; all dose levels (2.5, 5, 10 mg/kg) oral b.i.d., FIG. 1C",to levels lower than the baseline and closer to the control group
same,myofibroblast count,"[7]; all dose levels (2.5, 5, 10 mg/kg) oral b.i.d., FIG. 1D",to levels lower than the baseline and closer to the control group
"Cc1cc(-c2ncc(CC(=O)Nc3ccc(-c4cnccn4)cn3)cc2C)ccn1 [compound of formula (I″), 2-(2′,3-dimethyl-[2,4′-bipyridin]-5-yl)-N-(5-(pyrazin-2-yl)pyridin-2-yl)acetamide]",anti-fibrotic effects,Tsk-1 mice fibrosis,robust anti-fibrotic effects
same,dermal skin thickness,[4]; 1 mg/kg b.i.d. oral for three weeks,induce the reduction of dermal skin thickness
same,in vivo activity compared to compound of Formula (I′),[4]; 1 mg/kg b.i.d. vs 5 mg/kg b.i.d.,showed even better in vivo activities
Fresolimumab: anti-TGFβ antibody,skin fibrosis markers,skin fibrosis markers,Reduction of the skin fibrosis markers has been observed
